The text below walks through data of ChEMBL document CHEMBL2375297, “Coumarins hinged directly on benzimidazoles and their ribofuranosides to inhibit hepatitis C virus” (Eur J Med Chem, 2013).

Data set [1] is described as follows: Cytostatic activity against human Huh5-2 cells after 3 days by MTS method. In kind it is cell-based, Huh-5-2.
A short description of data set [2]: Selectivity index, ratio of CC50 for human Huh5-2 cells to EC50 for Hepatitis C virus genotype 1b infected in human Huh5-2 cells. As to conditions: read-out: Ratio CC50/EC50. In kind it is toxicity, cell-based, Huh-5-2.
For data set [3], the system named is Hepatitis C virus. Kind of data set: Antiviral activity against Hepatitis C virus genotype 1b infected in human Huh5-2 cells assessed as luciferase activity after 4 days by Steady-Glo luciferase assay. In kind it is functional, organism-based, Hepacivirus hominis. As to conditions: Huh-5-2, 96 h.

pEC50: −log10 of the molar value.

What is called CC50 is the concentration giving 50% cytotoxicity. Low values mean greater toxicity to the cells, high ones lower toxicity to the cells. In general, pEC50 refers to −log10 of the EC50, conventionally taken in molar units. In data set [1], `Cc1c(-c2nc3ccccc3n2[C@@H]2O[C@H](CO)[C@@H](O)[C@H]2O)c(=O)oc2ccccc12` displayed a CC50 at 72 h of 122 µM. In data set [2], the selectivity ratio amounted to 1.1. In addition, the pEC50 in data set [3] was 3.96.
The corresponding values for `CC(=O)OC[C@H]1O[C@@H](n2c(-c3cc4ccccc4oc3=O)nc3ccccc32)[C@H](OC(C)=O)[C@@H]1OC(C)=O` are 98 µM, 1.6 and 4.22.
The compound `COc1cccc2cc(-c3nc4cccnc4[nH]3)c(=O)oc12` returned a CC50 at 72 h in data set [1] of 170 µM. Moreover, the selectivity ratio in data set [2] amounted to 2. Besides, the pEC50 in data set [3] was 4.08.
For `O=c1oc2ccccc2cc1-c1nc2cc3ccccc3cc2[nH]1`, the CC50 at 72 h in data set [1] is 135 µM. Besides, the selectivity ratio in data set [2] stood at 1.3. Also, the pEC50 in data set [3] was 3.98.
Consider `O=C(O)c1ccc2[nH]c(-c3cc4cc([N+](=O)[O-])ccc4oc3=O)nc2c1`, for which the midpoint of cytotoxicity in data set [1], the CC50 at 72 h, lay at 10 µM. Besides, in data set [2], the selectivity ratio is 1.5. Besides, in data set [3], the pEC50 is 5.16.
The corresponding values for `CC(=O)OC[C@H]1O[C@@H](n2c(-c3c(C)c4ccccc4oc3=O)nc3ccccc32)[C@H](OC(C)=O)[C@@H]1OC(C)=O` are 941 µM, 1 and 3.03.
Compound `CC(=O)Oc1ccc2c(C)c(-c3nc4ccccc4[nH]3)c(=O)oc2c1` yielded a CC50 at 72 h in data set [1] of 153 µM. In addition, the selectivity ratio in data set [2] worked out at 1. Moreover, in data set [3], the pEC50 was 3.82.
As to `Cc1cc2nc(-c3cc4ccccc4oc3=O)[nH]c2cc1C`, in data set [1], it took 23 µM to reach half-maximal cytotoxicity (CC50 at 72 h). In data set [2], the selectivity ratio is 7.9. Besides, the pEC50 in data set [3] was 5.52.
The corresponding values for `Cc1cc2nc(-c3c(C)c4ccccc4oc3=O)[nH]c2cc1C` are 77 µM, 2 and 4.40.
As for `Cc1ccc2[nH]c(-c3c(C)c4ccccc4oc3=O)nc2c1`, in data set [1], it took 29 µM to reach half-maximal cytotoxicity (CC50 at 72 h). Moreover, the selectivity ratio in data set [2] is 1. Further, in data set [3], the pEC50 is 4.55.
Taken in the same sequence, the figures for `Cc1ccc2[nH]c(-c3cc4c(ccc5ccccc54)oc3=O)nc2c1` were 77 µM, 14 and 5.26.
As for `O=C(O)c1ccc2[nH]c(-c3cc4ccc(I)cc4oc3=O)nc2c1`, in data set [1], it took 118 µM to reach half-maximal cytotoxicity (CC50 at 72 h). For the same compound, in data set [2], the selectivity ratio came to 1. In data set [3], the pEC50 is 3.93.
Taken in the same sequence, the figures for `O=C(O)c1ccc2[nH]c(-c3cc4ccccc4oc3=O)nc2c1` were 13 µM, 0.32 and 4.40.
Taken in the same sequence, the figures for `Cc1c(-c2nc3ccccc3[nH]2)c(=O)oc2ccccc12` were 27 µM, 0.66 and 4.40.
`COc1cccc2cc(-c3nc4ccc(C)cc4[nH]3)c(=O)oc12` displayed a CC50 at 72 h in data set [1] of 12 µM. Further, the selectivity ratio in data set [2] worked out at 1. In data set [3], the pEC50 was 4.92.
In turn, `Cc1cc2nc(-c3cc4cc(Br)ccc4oc3=O)[nH]c2cc1C` came in with a CC50 at 72 h in data set [1] of 172 µM. The selectivity ratio in data set [2] was 4.3. Further, the pEC50 in data set [3] was 4.40.
Taken in the same sequence, the figures for `O=c1oc2ccccc2cc1-c1nc2cc(F)ccc2[nH]1` were 13 µM, 0.15 and 4.08.
In data set [1], `O=c1oc2ccccc2cc1-c1nc2ccccc2n1[C@@H]1O[C@H](CO)[C@@H](O)[C@H]1O` yielded a CC50 at 72 h of 127 µM. For the same compound, in data set [2], the selectivity ratio worked out at 6.4. Further, in data set [3], the pEC50 was 4.70.
For `Cc1c(-c2nc3cc(F)ccc3[nH]2)c(=O)oc2ccccc12`, in data set [1], half-maximal cytotoxicity (CC50 at 72 h) was put at 170 µM. Also, the selectivity ratio in data set [2] was 2.2. Also, in data set [3], the pEC50 is 4.10.
Turning to `Cc1ccc2[nH]c(-c3cc4ccccc4oc3=O)nc2c1`, in data set [1], it took 2.3 µM to reach half-maximal cytotoxicity (CC50 at 72 h). For the same compound, in data set [2], the selectivity ratio turned out to be 1. Also, the pEC50 in data set [3] is 5.64.
